Common to all, as to type: cell-based
In one test the test system is S. aureus ATCC 13709. As to the kind of experiment: MIC, S. aureus ATCC 13709 (Alamar Blue broth microdilution). The conditions noted are these: for MIC: Staphylococcus aureus.
Another test has as its system E. coli ATCC 25922. Kind of test: MIC, E. coli ATCC 25922. Conditions: for MIC: Escherichia coli.
The next test concerns S. pneumoniae ATCC 51916. As to the kind of experiment: MIC, S. pneumoniae ATCC 51916. Conditions: Streptococcus pneumoniae, ATCC51916; Spn = S. pneumoniae.
Test [1] has as its system K. pneumoniae ATCC 700603. Kind of test: MIC, K. pneumoniae ATCC 700603. Conditions: Klebsiella pneumoniae, ATCC700603, read-out: MIC Kpn.
A further test relates to P. aeruginosa ATCC 15692. As to the kind of experiment: MIC, P. aeruginosa ATCC 15692. Conditions: Pseudomonas aeruginosa, ATCC15692; Pa = P. aeruginosa.
For a further test, the system named is A. baumannii ATCC 19606. Kind of test: MIC, A. baumannii ATCC 19606. Conditions: Acinetobacter baumannii, ATCC19606; Ab = A. baumannii; strain not given.
Where [2] appears, read: ATCC13709, S. aureus, Alamar Blue read after overnight incubation at 35° C.
The mark [3] stands for this setting: ATCC25922, E. coli, Alamar Blue read after overnight incubation at 35° C.

Values after ≈ are worked out from the molar mass of the structure shown. Some results are limits rather than exact numbers.

We go through 20 compounds from patent US10858360B2, “Tricyclic gyrase inhibitors” (priority 2011, dated 2020).

A word on the MIC: it is the lowest concentration found to suppress growth.

For `CNc1cc(F)c(F)c2c1[nH]c1nc(Oc3cncnc3)nc(N3CC4C(N)C4C3)c12` (stereo not shown) [6.19], in the test with S. aureus ATCC 13709, the “MIC Sa” value is over 16 µg/mL. Further, the “MIC Ec” value with E. coli ATCC 25922 is over 16 µg/mL.
Regarding `CNc1cc(F)c(C)c2c1[nH]c1nc(Oc3cnc(C)nc3)nc(N3CC4(CCC4N)C3)c12` (stereo not shown) [6.20], in the test with S. aureus ATCC 13709, the “MIC Sa” value stood at 4 µg/mL (≈ 8.92 µM). For the same compound, the “MIC Ec” value against E. coli ATCC 25922 was over 16 µg/mL.
With `CNc1cc(F)c(C)c2c1[nH]c1nc(Oc3cnc(C)nc3)nc(NCCCN)c12` [6.21], the “MIC Sa” value in the test on S. aureus ATCC 13709 was over 16 µg/mL. Moreover, the “MIC Ec” value against E. coli ATCC 25922 was over 16 µg/mL.
Regarding `CNc1cc(F)c(C)c2c1[nH]c1nc(Oc3cnc(C)nc3)nc(NC3CCCCC3N)c12` (stereo not shown) [6.22], in the test with S. aureus ATCC 13709, the “MIC Sa” value is over 16 µg/mL. The “MIC Ec” value with E. coli ATCC 25922 is over 16 µg/mL.
Regarding `CNc1ccc(F)c2c1[nH]c1nc(Oc3cnc(N)nc3)nc(C3CC4C(N)C4C3)c12` (stereo not shown) [6.25], the MIC in the test on S. aureus ATCC 13709 (setting [2]) and with E. coli ATCC 25922 (setting [3]) was at most 0.5 µg/mL each time.
`CNc1cc(C)cc2c1[nH]c1nc(Oc3cnc(C)nc3)nc(N3CC4C(N)C4C3)c12` (stereo not shown) [6.26]: in the test on S. aureus ATCC 13709, the “MIC Sa” value is at most 0.5 µg/mL. Further, in the test on E. coli ATCC 25922, the “MIC Ec” value came to 1 µg/mL (≈ 2.4 µM).
`CNc1cc(C)cc2c1[nH]c1nc(Oc3cncnc3)nc(N3CC4C(N)C4C3)c12` (stereo not shown) [6.27]: the “MIC Sa” value in the test with S. aureus ATCC 13709 was at most 0.5 µg/mL. Also, the “MIC Ec” value against E. coli ATCC 25922 was 1 µg/mL (≈ 2.48 µM).
Turning to `CNc1cc(F)c(C)c2c1[nH]c1nc(Oc3cnc(C)nc3)nc(N3CC4C[C@@H]3C[C@H]4N)c12` [6.28], the minimum inhibitory concentration (MIC) was at most 0.5 µg/mL against S. aureus ATCC 13709 (setting [2]); at most 0.5 µg/mL against S. aureus ATCC 13709 (ATCC13709, Sa = S. aureus); at most 0.5 µg/mL in the test on E. coli ATCC 25922 (setting [3]); at most 0.5 µg/mL against E. coli ATCC 25922 (ATCC25922, Ec = E. coli, strain not given); at most 0.5 µg/mL with S. pneumoniae ATCC 51916; 2 µg/mL (≈ 4.46 µM) in test [1]. Besides, the minimum inhibitory concentration (MIC) with P. aeruginosa ATCC 15692 was 1 µg/mL (≈ 2.23 µM); in the test on A. baumannii ATCC 19606 it was at most 0.5 µg/mL.
For the compound `CNc1nccc2c1[nH]c1nc(Sc3cnc4nccnc4c3)nc(N3CC[C@@H](N)C3)c12` [7.01], the minimal inhibitory concentration (MIC) with S. aureus ATCC 13709 (setting [2]) is 8 µg/mL (≈ 18 µM); in the test with E. coli ATCC 25922 (setting [3]) it was over 64 µg/mL.
Turning to `CNc1nccc2c1[nH]c1nc(Oc3cncnc3)nc(N3CC[C@@H](N)C3)c12` [7.02], the minimal inhibitory concentration (MIC) was over 64 µg/mL in the test on S. aureus ATCC 13709 (setting [2]) and 32 µg/mL (≈ 84.8 µM) against E. coli ATCC 25922 (setting [3]).
The like results for `COc1nccc2c1[nH]c1nc(Sc3cnc4cccnc4c3)nc(N3CC4C(N)C4C3)c12` (stereo not shown) [7.03] were, in that order, 2 µg/mL (≈ 4.38 µM) and over 64 µg/mL.
In the same order, the values of `CNc1ncnc2c1[nH]c1nc(Oc3cncc(F)c3)nc(N3CC4C(N)C4C3)c12` (stereo not shown) [7.04] are 8 µg/mL (≈ 19.6 µM) and 32 µg/mL (≈ 78.5 µM).
In the same order, the values of `CNc1ncnc2c1[nH]c1nc(Oc3cnc(C)nc3)nc(N3CC4C(N)C4C3)c12` (stereo not shown) [7.05] are 8 µg/mL (≈ 19.8 µM) and 64 µg/mL (≈ 158 µM).
Take `CNc1ncnc2c1[nH]c1nc(Oc3cncc(F)c3)nc(N3CC(N)C4(CC4)C3)c12` (stereo not shown) [7.06]: the results for the MIC in the test with S. aureus ATCC 13709 (setting [2]) and in the test with E. coli ATCC 25922 (setting [3]) were 8 µg/mL (≈ 19 µM) and 64 µg/mL (≈ 152 µM), respectively.
For `CNc1ncnc2c1[nH]c1nc(Oc3cncc(F)c3)nc(N3CCC4(CC4N)C3)c12` (stereo not shown) [7.07], the minimum inhibitory concentration (MIC) against S. aureus ATCC 13709 (setting [2]) was 16 µg/mL (≈ 38 µM); in the test with E. coli ATCC 25922 (setting [3]) it was over 64 µg/mL.
For `CNc1ncnc2c1[nH]c1nc(Oc3cnc(C)nc3)nc(N3CC(N)C4(CC4)C3)c12` (stereo not shown) [7.08], the minimum inhibitory concentration (MIC) is 16 µg/mL (≈ 38.2 µM) against S. aureus ATCC 13709 (setting [2]) and over 64 µg/mL with E. coli ATCC 25922 (setting [3]).
The like results for `CNc1ncnc2c1[nH]c1nc(Oc3cnc(C)nc3)nc(N3CCC4(CC4N)C3)c12` (stereo not shown) [7.09] were, in that order, 8 µg/mL (≈ 19.1 µM) and over 64 µg/mL.
`CNc1ncnc2c1[nH]c1nc(Oc3cncnc3)nc(Oc3cncnc3)c12` [7.10]: the MIC against S. aureus ATCC 13709 (setting [2]) and in the test with E. coli ATCC 25922 (setting [3]) was over 64 µg/mL in each case.
With `CNc1ncnc2c1[nH]c1nc(-c3cncnc3)nc(N3CC4C(N)C4C3)c12` (stereo not shown) [7.11], the minimum inhibitory concentration (MIC) against S. aureus ATCC 13709 (setting [2]) and in the test with E. coli ATCC 25922 (setting [3]) was over 64 µg/mL each time.
On to `CNc1ncnc2c1[nH]c1nc(Oc3cnc(C)nc3)nc(N3CCC(CN)C3)c12` (stereo not shown) [7.12], for which the MIC in the test with S. aureus ATCC 13709 (setting [2]) and in the test with E. coli ATCC 25922 (setting [3]) was over 64 µg/mL in each case.
